Assay results: ChEMBL document CHEMBL4373705, “Design and synthesis of sulfonamidophenylethylamides as novel cardiac myosin activator” (2019)

How the values were obtained:
Bos taurus = species on record: Bos taurus; assay: Activation of bovine cardiac actin thin filament complex-stimulated myosin S1 ATPase activity assessed as inorganic phosphate liberated at 10 uM incubated for 10 mins in presence of ATP by spectrophotometry relative to control
Oryctolagus cuniculus = species on record: Oryctolagus cuniculus; assay: Activation of rabbit skeletal muscle actin thin filament complex-stimulated myosin S1 ATPase activity assessed as inorganic phosphate liberated at 100 uM incubated for 10 mins in presence of ATP by spectrophotometry relative to control
Rattus norvegicus [1] = assay: Positive […] activity in Sprague-Dawley rat assessed as increase in ejection fraction at 16 ug/kg/min, iv for 3 mins by echocardiography relative to control; assay type: functional
Gallus gallus = species on record: Gallus gallus; assay: Activation of chicken gizzard muscle actin and tropomyosin-stimulated myosin S1 ATPase activity assessed as inorganic phosphate liberated at 100 uM incubated for 10 mins in presence of ATP by spectrophotometry relative to control
Rattus norvegicus [2] = assay: Positive […] activity in Sprague-Dawley rat assessed as increase in fractional shortening at 16 ug/kg/min, iv for 3 mins by echocardiography relative to control; assay type: functional
Rattus norvegicus [3] = species on record: Rattus norvegicus; assay: Activation of myosin ATPase activity in Sprague-Dawley rat ventricular myocytes assessed as increase in ventricular cell shortening by measuring change in ventricular cell contractility at 5 uM by electrophysiology relative to control
Rattus norvegicus [4] = species on record: Rattus norvegicus; assay: Activation of myosin ATPase activity in Sprague-Dawley rat ventricular myocytes assessed as increase in ventricular cell shortening by measuring change in ventricular cell contractility at 1 uM by electrophysiology relative to control

Row | Compound | Activity (Bos taurus) | Activity (Rattus norvegicus [1]) | Activity (Rattus norvegicus [2]) | further results
1 | CN(C)S(=O)(=O)c1ccc(CCNC(=O)CCCCc2ccccc2)cc1 | 59% | 9.75% | 14.85% | Activity (Oryctolagus cuniculus): -2.8%; Activity (Gallus gallus): 3%; Activity (Rattus norvegicus [3]): 18.6%
2 | CN(CCc1ccc(S(=O)(=O)N(C)C)cc1)C(=O)CCCCc1ccccc1 | 48.5% | 15.28% | 26.21% | Activity (Oryctolagus cuniculus): -4.8%; Activity (Gallus gallus): 5.2%; Activity (Rattus norvegicus [3]): 88.2%
3 | CN(C)S(=O)(=O)c1ccc(CCCC(=O)N2CCN(c3ccccc3)CC2)cc1 | 14% | – | – | –
4 | O=C(CCCc1ccccc1)NCCCc1ccccc1 | 62% | 9.08% | 13.85% | –
5 | Cc1ccc2c(c1)C(=O)[C@]1(O)CCN(c3ccccc3)C1=N2 | – | – | – | Activity (Oryctolagus cuniculus): -50.7%; Activity (Gallus gallus): -35.7%
6 | CCN(Cc1ccc(S(=O)(=O)N(C)C)cc1)C(=O)CCCCc1ccccc1 | 17.5% | – | – | –
7 | O=C(CCCCc1ccccc1)NCCc1ccccc1F | 43.3% | – | – | –
8 | CNS(=O)(=O)c1ccc(CN(C)C(=O)CCCCc2ccccc2)cc1 | 55.9% | 9.95% | 15.75% | –
9 | CN(CCCc1ccccc1)C(=O)NCCc1ccc(S(=O)(=O)N(C)C)cc1 | 47.6% | – | – | Activity (Rattus norvegicus [3]): 63.5%
10 | O=C(NCCCc1ccccc1)NCc1ccccc1 | 53.3% | – | – | –
11 | CN(CCc1ccc(S(=O)(=O)N(C)C)cc1)C(=O)NCCCc1ccccc1 | 52.3% | – | – | Activity (Rattus norvegicus [3]): 45.5%
12 | O=C(CCCCc1ccccc1)NCc1ccccc1 | 33.1% | – | – | –
13 | NS(=O)(=O)c1ccc(CNC(=O)CCCCc2ccccc2)cc1 | 44.4% | – | – | –
14 | O=C(CCCCc1ccccc1)NC1Cc2ccccc2C1 | 31.1% | – | – | –
15 | CN(Cc1ccc(S(=O)(=O)N(C)C)cc1)C(=O)CCCCc1ccccc1 | 24.1% | – | – | –
16 | CN(C)S(=O)(=O)c1ccc(CCCC(=O)NCCCc2ccccc2)cc1 | 50.3% | 11.65% | 17.55% | Activity (Oryctolagus cuniculus): -1.9%; Activity (Gallus gallus): 4.1%; Activity (Rattus norvegicus [3]): 20.5%

Now from value to compound, other results behind:

Row | Activity (Bos taurus) | Compound | Activity (Rattus norvegicus [1]) | Activity (Rattus norvegicus [2]) | further results
17 | 17.9% | CCN(CC)S(=O)(=O)c1ccc(CCN(C)C(=O)CCCCc2ccccc2)cc1 | – | – | –
18 | 46.5% | CNS(=O)(=O)c1ccc(CCN(C)C(=O)CCCCc2ccccc2)cc1 | 9.22% | 13.51% | –
19 | 14.9% | CN(CCc1ccc(S(=O)(=O)N2CCOCC2)cc1)C(=O)CCCCc1ccccc1 | – | – | –
20 | 29.5% | CN(C)S(=O)(=O)c1ccc(CCCC(=O)N2CCC(c3ccccc3)CC2)cc1 | – | – | –
21 | 62.9% | Cc1ccc(CCNC(=O)CCCCc2ccccc2)cc1 | – | – | –
22 | 91.6% | CN(C)S(=O)(=O)c1ccc(CCNC(=O)NCCCc2ccccc2)cc1 | – | – | Activity (Rattus norvegicus [3]): 47.9%
23 | 55% | CN(CCCc1ccccc1)C(=O)CCCc1ccc(S(=O)(=O)N(C)C)cc1 | 14.08% | 24.69% | Activity (Oryctolagus cuniculus): 2.3%; Activity (Gallus gallus): -3.4%; Activity (Rattus norvegicus [3]): 46.5%
24 | 20% | CN(C)S(=O)(=O)c1ccc(CNC(=O)CCCCc2ccccc2)cc1 | – | – | –
25 | 58% | COC(=O)N1CCN(Cc2cccc(NC(=O)Nc3ccc(C)nc3)c2F)CC1 | – | – | Activity (Oryctolagus cuniculus): 2.8%; Activity (Gallus gallus): -5.5%; Activity (Rattus norvegicus [4]): 33.8%
26 | 39.1% | O=C(CCCCc1ccccc1)NCCc1ccccc1 | 13.97% | 22.8% | Activity (Oryctolagus cuniculus): -2.9%; Activity (Gallus gallus): -2.8%; Activity (Rattus norvegicus [3]): 21.3%
27 | 13.9% | CCN(CCc1ccc(S(=O)(=O)N(C)C)cc1)C(=O)CCCCc1ccccc1 | – | – | –
28 | 57.4% | COc1ccccc1CCNC(=O)CCCCc1ccccc1 | 9.18% | 13.06% | –
29 | 78.7% | NS(=O)(=O)c1ccc(CCNC(=O)CCCCc2ccccc2)cc1 | 2.7% | 4.48% | –
30 | 71.6% | COc1ccc(CCNC(=O)CCCCc2ccccc2)cc1OC | 8.19% | 11.83% | –
31 | 51.1% | O=C(NCCCc1ccccc1)NCCc1ccccc1 | – | – | –
